Experiment: xn = mol fraction of the nth substance listed
Details: 85 kPa, Liquid; for viscosity: Concentric cylinders viscometry; for mass density: Vibrating tube method

CCC(C)O (centres undefined) [butan-2-ol] + CC(C)O
Details | mass density [kg/m3] | viscosity [mPa·s]
293.15 K, x1 = 0.0807 | 787.1 | 2.497
293.15 K, x1 = 0.1619 | 789.2 | 2.584
293.15 K, x1 = 0.2385 | 791 | 2.674
293.15 K, x1 = 0.3492 | 793.6 | 2.814
293.15 K, x1 = 0.4386 | 795.7 | 2.932
293.15 K, x1 = 0.56 | 798.3 | 3.097
293.15 K, x1 = 0.6489 | 800 | 3.221
293.15 K, x1 = 0.7402 | 801.8 | 3.352
293.15 K, x1 = 0.8494 | 803.7 | 3.511
293.15 K, x1 = 0.9403 | 805.3 | 3.648
293.15 K, x1 = 1 | 806.2 | 3.743
298.15 K, x1 = 0.0807 | 782.9 | 2.146
298.15 K, x1 = 0.1619 | 785 | 2.211
298.15 K, x1 = 0.2385 | 786.9 | 2.282
298.15 K, x1 = 0.3492 | 789.5 | 2.391
298.15 K, x1 = 0.4386 | 791.5 | 2.481
298.15 K, x1 = 0.56 | 794.1 | 2.607
298.15 K, x1 = 0.6489 | 795.9 | 2.702
298.15 K, x1 = 0.7402 | 797.6 | 2.801
298.15 K, x1 = 0.8494 | 799.6 | 2.923
298.15 K, x1 = 0.9403 | 801.1 | 3.028
298.15 K, x1 = 1 | 802 | 3.101
303.15 K, x1 = 0.0807 | 778.7 | 1.851
303.15 K, x1 = 0.1619 | 780.8 | 1.901
303.15 K, x1 = 0.2385 | 782.7 | 1.955
303.15 K, x1 = 0.3492 | 785.3 | 2.038
303.15 K, x1 = 0.4386 | 787.4 | 2.107
303.15 K, x1 = 0.56 | 790 | 2.204
303.15 K, x1 = 0.6489 | 791.8 | 2.276
303.15 K, x1 = 0.7402 | 793.5 | 2.352
303.15 K, x1 = 0.8494 | 795.5 | 2.444
303.15 K, x1 = 0.9403 | 797 | 2.524
303.15 K, x1 = 1 | 797.9 | 2.579
308.15 K, x1 = 0.0807 | 774.4 | 1.603
308.15 K, x1 = 0.1619 | 776.5 | 1.643
308.15 K, x1 = 0.2385 | 778.5 | 1.684
308.15 K, x1 = 0.3492 | 781.1 | 1.747
308.15 K, x1 = 0.4386 | 783.1 | 1.801
308.15 K, x1 = 0.56 | 785.7 | 1.876
308.15 K, x1 = 0.6489 | 787.5 | 1.932
308.15 K, x1 = 0.7402 | 789.3 | 1.991
308.15 K, x1 = 0.8494 | 791.2 | 2.062
308.15 K, x1 = 0.9403 | 792.7 | 2.121
308.15 K, x1 = 1 | 793.6 | 2.162
313.15 K, x1 = 0.0807 | 769.9 | 1.397
313.15 K, x1 = 0.1619 | 772.1 | 1.427
313.15 K, x1 = 0.2385 | 774 | 1.459
313.15 K, x1 = 0.3492 | 776.7 | 1.508
313.15 K, x1 = 0.4386 | 778.7 | 1.549
313.15 K, x1 = 0.56 | 781.3 | 1.608
313.15 K, x1 = 0.6489 | 783.1 | 1.652
313.15 K, x1 = 0.7402 | 784.9 | 1.697
313.15 K, x1 = 0.8494 | 786.8 | 1.751
313.15 K, x1 = 0.9403 | 788.4 | 1.798
313.15 K, x1 = 1 | 789.2 | 1.828
318.15 K, x1 = 0.0807 | 765.5 | 1.221
318.15 K, x1 = 0.1619 | 767.6 | 1.246
318.15 K, x1 = 0.2385 | 769.6 | 1.271
318.15 K, x1 = 0.3492 | 772.2 | 1.31
318.15 K, x1 = 0.4386 | 774.3 | 1.342
318.15 K, x1 = 0.56 | 776.9 | 1.388
318.15 K, x1 = 0.6489 | 778.7 | 1.422
318.15 K, x1 = 0.7402 | 780.4 | 1.457
318.15 K, x1 = 0.8494 | 782.4 | 1.5
318.15 K, x1 = 0.9403 | 783.9 | 1.536
318.15 K, x1 = 1 | 784.7 | 1.559
323.15 K, x1 = 0.0807 | 760.9 | 1.072
323.15 K, x1 = 0.1619 | 763.1 | 1.093
323.15 K, x1 = 0.2385 | 765 | 1.113
323.15 K, x1 = 0.3492 | 767.7 | 1.144
323.15 K, x1 = 0.4386 | 769.7 | 1.169
323.15 K, x1 = 0.56 | 772.4 | 1.205
323.15 K, x1 = 0.6489 | 774.2 | 1.231
323.15 K, x1 = 0.7402 | 775.9 | 1.258
323.15 K, x1 = 0.8494 | 777.9 | 1.291
323.15 K, x1 = 0.9403 | 779.4 | 1.318
323.15 K, x1 = 1 | 780.2 | 1.318
